Measured values as given in article PMC11200585, “Prospects for Prostate Cancer Chemotherapy: Cytotoxic Evaluation and Mechanistic Insights of Quinolinequinones with ADME/PK Profile” (Biomedicines, 2024).

Experiments:
Assay type in all cases: cell-based, human
[1] = test system: CCRF-CEM; assay: NCI-60 one-dose screen (leukemia); settings: 10 µM single dose, 48 h
Protocol: (§1) The obtained quinolinequinones were submitted to NCI, Bethesda, USA, and, as per standard protocol of NCI, all compounds were evaluated for their antiproliferative activity at single-dose assay (10 µM concentration in DMSO) on a panel of 60 cancer cell lines derived from leukemia, non-small-cell lung, colon, CNS, melanoma, ovarian, renal, prostate, and breast, as per protocol. Tested compounds were added to the microtiter culture plates followed by incubation for 48 h at 37 °C. Sulforhodamine B (SRB), a protein-binding dye, is used for endpoint determination. The percent of the growth of the treated cells was determined in comparison to the untreated control cells and the results of each tested compound were reported. Data from one-dose experiments pertain to the percentage growth at 10 μM [16, 17, 18].

[2] = test system: HL-60(TB); assay: NCI-60 one-dose screen (leukemia); settings: 10 µM single dose, 48 h
Protocol: as §1

[3] = test system: K-562; assay: NCI-60 one-dose screen (leukemia); settings: 10 µM single dose, 48 h
Protocol: as §1

[4] = test system: MOLT-4; assay: NCI-60 one-dose screen (leukemia); settings: 10 µM single dose, 48 h
Protocol: as §1

[5] = test system: RPMI-8226; assay: NCI-60 one-dose screen (leukemia); settings: 10 µM single dose, 48 h
Protocol: as §1

[6] = test system: SR; assay: NCI-60 one-dose screen (leukemia); settings: 10 µM single dose, 48 h
Protocol: as §1

[7] = test system: A549/ATCC; assay: NCI-60 one-dose screen (non-small cell lung cancer); settings: 10 µM single dose, 48 h
Protocol: as §1

[8] = test system: SF-268; assay: NCI-60 one-dose screen (CNS cancer); settings: 10 µM single dose, 48 h
Protocol: as §1

[9] = test system: SF-295; assay: NCI-60 one-dose screen (CNS cancer); settings: 10 µM single dose, 48 h
Protocol: as §1

[10] = test system: SF-539; assay: NCI-60 one-dose screen (CNS cancer); settings: 10 µM single dose
Protocol: as §1

[11] = test system: SNB-19; assay: NCI-60 one-dose screen (CNS cancer); settings: 10 µM single dose, 48 h
Protocol: as §1

[12] = test system: SNB-75; assay: NCI-60 one-dose screen (CNS cancer); settings: 10 µM single dose, 48 h
Protocol: as §1

[13] = test system: U251; assay: NCI-60 one-dose screen (CNS cancer); settings: 10 µM single dose, 48 h
Protocol: as §1

[14] = test system: IGROV1; assay: NCI-60 one-dose screen (ovarian cancer); settings: 10 µM single dose, 48 h
Protocol: as §1

[15] = test system: NCI/ADR-RES; assay: NCI-60 one-dose screen (ovarian cancer); settings: 10 µM single dose
Protocol: as §1

[16] = test system: OVCAR-4; assay: NCI-60 one-dose screen (ovarian cancer); settings: 10 µM single dose, 48 h
Protocol: as §1

[17] = test system: OVCAR-5; assay: NCI-60 one-dose screen (ovarian cancer); settings: 10 µM single dose, 48 h
Protocol: as §1

[18] = test system: OVCAR-8; assay: NCI-60 one-dose screen (ovarian cancer); settings: 10 µM single dose
Protocol: as §1

[19] = test system: SK-OV-3; assay: NCI-60 one-dose screen (ovarian cancer); settings: 10 µM single dose, 48 h
Protocol: as §1

[20] = test system: DU-145; assay: NCI-60 one-dose screen (prostate cancer); settings: 10 µM single dose, 48 h
Protocol: as §1

[21] = test system: PC-3; assay: NCI-60 one-dose screen (prostate cancer); settings: 10 µM single dose
Protocol: as §1

[22] = test system: HS 578T; assay: NCI-60 one-dose screen (breast cancer); settings: 10 µM single dose, 48 h
[23] = test system: MCF7; assay: NCI-60 one-dose screen (breast cancer); settings: 10 µM single dose, 48 h
[24] = test system: MDA-MB-231/ATCC; assay: NCI-60 one-dose screen (breast cancer); settings: 10 µM single dose, 48 h
[25] = test system: HL-60(TB); assay: NCI-60 five-dose assay (leukemia); settings: 48 h, SRB
[26] = test system: NCI-H23; assay: NCI-60 five-dose assay (non-small cell lung cancer); settings: 48 h, SRB
[27] = test system: HCT-15; assay: NCI-60 five-dose assay (colon cancer); settings: 48 h, SRB
[28] = test system: SF-295; assay: NCI-60 five-dose assay (CNS cancer); settings: 48 h, SRB
[29] = test system: SNB-19; assay: NCI-60 five-dose assay (CNS cancer); settings: 48 h, SRB
[30] = test system: MALME-3M; assay: NCI-60 five-dose assay (melanoma); settings: 48 h, SRB
[31] = test system: M14; assay: NCI-60 five-dose assay (melanoma); settings: 48 h, SRB
[32] = test system: SK-MEL-2; assay: NCI-60 five-dose assay (melanoma); settings: 48 h, SRB
[33] = test system: SK-MEL-5; assay: NCI-60 five-dose assay (melanoma); settings: 48 h, SRB
[34] = test system: OVCAR-5; assay: NCI-60 five-dose assay (ovarian cancer); settings: 48 h, SRB
[35] = test system: ACHN; assay: NCI-60 five-dose assay (renal cancer); settings: 48 h, SRB
[36] = test system: UO-31; assay: NCI-60 five-dose assay (renal cancer); settings: 48 h, SRB
[37] = test system: PC-3; assay: NCI-60 five-dose assay (prostate cancer); settings: 48 h, SRB
[38] = test system: T-47D; assay: NCI-60 five-dose assay (breast cancer); settings: Homo sapiens, T47D, 48 h, SRB
[39] = test system: MDA-MB-468; assay: NCI-60 five-dose assay (breast cancer); settings: 48 h, SRB
[40] = Homo sapiens, read-out: LC50 (the source's name)

With COc1ccccc1NC1=C(Cl)C(=O)c2nc(C)ccc2C1=O [AQQ1] the “GP (growth percentage)” value [1] was −4.94%, the “GP (growth percentage)” value [2] was −48.05% and the “GP (growth percentage)” value [3] was −21.12%. The “GP (growth percentage)” value [4] was −39.00%, the “GP (growth percentage)” value [5] was −30.44% and the “GP (growth percentage)” value [6] was −27.92%. For the same compound, the “GP (growth percentage)” value [7] was 101.36%, the “GP (growth percentage)” value [8] was 47.42% and the “GP (growth percentage)” value [9] was 96.61%. For the same compound, the “GP (growth percentage)” value ([10]; 48 h) was 1.78%, the inhibition at 10 µM ([10]; Homo sapiens) was 98.2% and the “GP (growth percentage)” value [11] was 38.92%. The “GP (growth percentage)” value [12] was 105.38%, the “GP (growth percentage)” value [13] was 62.79% and the “GP (growth percentage)” value [14] was −83.51%. For the same compound, the “GP (growth percentage)” value ([15]; 48 h) was 7.08%, the inhibition at 10 µM ([15]; Homo sapiens) was 92.9% and the “GP (growth percentage)” value [16] was −98.22%. For the same compound, the “GP (growth percentage)” value [17] was 78.91%, the “GP (growth percentage)” value ([18]; 48 h) was 9.87% and the inhibition at 10 µM ([18]; Homo sapiens) was 90.1%. For the same compound, the “GP (growth percentage)” value [19] was 88.34%, the “GP (growth percentage)” value [20] was −57.26% and the “GP (growth percentage)” value ([21]; 48 h) was 27.39%. For the same compound, the inhibition at 10 µM ([21]; Homo sapiens) was 72.6%, the “GP (growth percentage)” value [22] was 72.15% and the “GP (growth percentage)” value [23] was −60.38%. For the same compound, the “GP (growth percentage)” value [24] was −57.30%, the TGI [25] was 3.52 µM and the GI50 ([25]; Homo sapiens) was 1.37 µM. The CC50 [25, 40] was 9.03 µM, the TGI [26] was 3.30 µM and the GI50 ([26]; Homo sapiens) was 1.47 µM. The CC50 [26, 40] was 7.45 µM, the TGI [27] was 3.02 µM and the GI50 ([27]; Homo sapiens) was 1.33 µM. For the same compound, the CC50 [27, 40] was 6.83 µM, the TGI [28] was 3.42 µM and the GI50 ([28]; Homo sapiens) was 1.85 µM. For the same compound, the LC50 (50% lethal concentration) ([28]; Homo sapiens) was 6.32 µM, the TGI [29] was 3.72 µM and the GI50 ([29]; Homo sapiens) was 1.81 µM. The CC50 [29, 40] was 7.64 µM, the TGI [30] was 3.19 µM and the GI50 ([30]; Homo sapiens) was 1.71 µM. The LC50 ([30]; Homo sapiens) was 5.95 µM, the TGI [31] was 3.81 µM and the GI50 ([31]; Homo sapiens) was 1.82 µM. It also gave an LC50 ([31]; Homo sapiens) of 7.96 µM, a TGI [32] of 3.34 µM and a GI50 ([32]; Homo sapiens) of 1.81 µM. It also gave a CC50 [32, 40] of 6.19 µM, a TGI [33] of 3.17 µM and a GI50 ([33]; Homo sapiens) of 1.75 µM. It also gave a CC50 [33, 40] of 5.74 µM, a TGI [34] of 3.42 µM and a GI50 ([34]; Homo sapiens) of 1.86 µM. The LC50 (lethal concentration 50%) ([34]; Homo sapiens) was 6.29 µM, the TGI [35] was 2.80 µM and the GI50 ([35]; Homo sapiens) was 1.47 µM. For the same compound, the LC50 ([35]; Homo sapiens) was 5.34 µM, the TGI [36] was 2.73 µM and the GI50 ([36]; Homo sapiens) was 1.42 µM. For the same compound, the LC50 (lethal concentration 50%) ([36]; Homo sapiens) was 5.26 µM, the TGI [37] was 2.58 µM and the GI50 ([37]; Homo sapiens) was 1.21 µM. For the same compound, the CC50 [37, 40] was 5.49 µM, the GI50 [38] was 1.37 µM and the CC50 ([38]; read-out: LC50 (the source's name)) was > 100 µM. The TGI [39] was 3.06 µM, the GI50 ([39]; Homo sapiens) was 1.52 µM and the LC50 ([39]; Homo sapiens) was 6.16 µM.
